Measured values reported in US8222202B2 (priority 2006, dated 2012).
Where two headings read alike, the source gives them in different places. Starred links: 1 amine or outer side, 2 acyl side, 3 side chain; linkers in the order of their positions; H or OH if unused. Positions of bridges follow the written chain, without caps; N, C: chain ends. Non-standard residues stand in square brackets, D forms with d. Residues, ends and D or L forms follow the SMILES beside them. Orn(Me) = CN(CCC[C@H](N[*:1])C(=O)[*:2])[*:3]; Ala(2-furyl) = N[C@@H](Cc1ccco1)C(=O)O; X2 = CONC(=O)CC[C@H](N[*:1])C(=O)[*:2]; Orn(iPr) = CC(C)NCCC[C@H](N)C(=O)O; X1 = CCNCCC[C@H](N[*:1])C(=O)[*:2]; Orn(Pr) = CCCNCCC[C@H](N)C(=O)O; 3Thi = N[C@@H](Cc1ccsc1)C(=O)O; Aad = N[C@@H](CCCC(=O)O)C(=O)O; Orn = NCCC[C@H](N)C(=O)O; Dab = NCC[C@H](N)C(=O)O

Columns and labels:
hV1a receptor = molecular target: T1, hV1a receptor (Homo sapiens, UniProt P37288); assay: hV1a receptor transcriptional reporter (luciferase) agonist assay; format: cell-based
T1 construct: expressed in transfected cells; host or cells: HEK-293
T1 sequence (P37288 whole entry): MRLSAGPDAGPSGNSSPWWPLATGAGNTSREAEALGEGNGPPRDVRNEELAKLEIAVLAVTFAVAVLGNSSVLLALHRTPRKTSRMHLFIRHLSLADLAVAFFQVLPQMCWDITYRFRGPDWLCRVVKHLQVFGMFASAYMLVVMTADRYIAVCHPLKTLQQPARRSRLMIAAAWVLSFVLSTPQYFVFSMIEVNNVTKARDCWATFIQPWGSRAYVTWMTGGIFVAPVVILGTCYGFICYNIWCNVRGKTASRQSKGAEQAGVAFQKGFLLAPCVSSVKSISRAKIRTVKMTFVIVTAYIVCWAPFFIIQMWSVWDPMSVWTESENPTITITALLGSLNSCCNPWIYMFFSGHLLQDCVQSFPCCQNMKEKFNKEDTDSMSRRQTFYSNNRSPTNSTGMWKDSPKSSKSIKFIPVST
Protocol: (§1) Agonist activity of compounds on the hV1a receptor was determined in a transcriptional reporter assay by transiently transfecting a hV1a receptor expression DNA into HEK-293 cells in concert with a reporter DNA containing intracellular calcium responsive promoter elements regulating expression of firefly luciferase. See Boss, V., Talpade, D. J., Murphy, T. J. J. Biol. Chem. 1996, May 3; 271(18), 10429-10432 for further guidance on this assay. […] To determine selectivity, compounds were tested in luciferase-based transcriptional reporter assays expressing the human oxytocin (hOT) receptor. Assays for other receptors (hV2, hV1b, rat V1a and rat V2) were also conducted.
(§2) The EC50 value given is the geometric mean expressed in nanomol/L (nM). Selectivity values are given as EC50 ratios.

[1] = molecular target: T2, human oxytocin (hOT) receptor (Homo sapiens, UniProt P30559); assay: luciferase-based transcriptional reporter assay, selectivity hOT versus hV1a; format: cell-based
T2 construct: expressed in transfected cells
T2 sequence (P30559 1-389): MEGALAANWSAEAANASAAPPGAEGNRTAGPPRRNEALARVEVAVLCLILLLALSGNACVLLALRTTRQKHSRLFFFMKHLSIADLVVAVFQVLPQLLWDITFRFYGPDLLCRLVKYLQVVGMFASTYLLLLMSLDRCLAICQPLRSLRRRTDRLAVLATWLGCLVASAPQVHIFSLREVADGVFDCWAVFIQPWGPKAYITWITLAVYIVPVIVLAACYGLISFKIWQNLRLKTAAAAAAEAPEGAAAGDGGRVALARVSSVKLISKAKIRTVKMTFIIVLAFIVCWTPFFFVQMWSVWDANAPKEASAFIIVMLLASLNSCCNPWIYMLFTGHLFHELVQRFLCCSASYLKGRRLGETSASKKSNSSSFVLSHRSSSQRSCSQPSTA
Protocol: as §1, §2

[2] = system: anaesthetised Sprague-Dawley male rats; assay: in vivo duration of action, blood pressure test in anaesthetised rats; parameters: species or system rat; details: ratio of decay rate of diastolic blood pressure response, AVP 0.1 nmol/kg i.v. to equieffective dose of compound; dibenamine-pretreated rats
Protocol: Blood pressure tests were carried out on anaesthetised Sprague-Dawley male rats (weighing 270-300 g) with catheterised jugular vein and carotid artery. The catheterised carotid artery was used to continuously monitor blood pressure and the jugular vein was used for administration of the compounds tested. Rats received intravenous injections of dibenamine prior to dosing to enhance their responsiveness to V1a receptor agonists (cf. Dekanski, J., Br. J. Pharmacol. 1952, 7, 567-572). […] Dosing intervals were set as time for the blood pressure to decrease to a stable baseline.
Determination of duration of action was based on the decay rate of diastolic arterial blood pressure transient increase. Specifically, for an exponential decay of plasma concentration, it can be shown that, if the response is measured beyond the distribution phase, the rate of decay near the EC50 is linear and inversely proportional to the elimination half-life (Rowland, M. and Tozer, T. in “Clinical Pharmacokinetics, Concepts and Applications”, 3rd ed., Lippincott Williams & Wilkins, Philadelphia, 1995).

[3] = HEK-293 cells transiently transfected with hV1a receptor, 5 hours exposure, geometric mean, read-out: EC50 hV1a receptor
[4] = class symbol, agonist efficacy at hOT receptor compared to AVP

CC[C@H](C)[C@@H]1NC(=O)[C@H](Cc2ccco2)NC(=O)[C@@H](N)CSSC[C@@H](C(=O)N2CCC[C@H]2C(=O)N[C@@H](CCN)C(=O)NCC(N)=O)NC(=O)[C@H](CC(N)=O)NC(=O)[C@H](CCC(N)=O)NC1=O [Compound 26] (H-C[Ala(2-furyl)]IQNCP[Dab]G-NH2; disulfide 1-6; N-terminus and C-terminus assumed)
EC50 (hV1a receptor; [3]): 2.24 nM | selectivity hOT/hV1a ([1]; EC50 ratio): 28 | in vivo duration relative to AVP [2]: 2.0

CC[C@H](C)[C@@H]1NC(=O)[C@H](Cc2ccccc2)NC(=O)[C@@H](N)CSSC[C@@H](C(=O)N2CCC[C@H]2C(=O)N[C@@H](CCN)C(=O)NCC(N)=O)NC(=O)[C@H](CC(N)=O)NC(=O)[C@H](CC(N)=O)NC1=O [Compound 3] (H-CFINNCP[Dab]G-NH2; disulfide 1-6)
EC50 (hV1a receptor): 1.47 nM | selectivity hOT/hV1a [1]: + (key: +: selective hV1a receptor agonist; EC50 hOT/hV1a ratio not determined due to very low agonist efficacy (<30% compared to AVP) at the hOT receptor) | in vivo duration relative to AVP [2]: 1.7

NCCCC[C@H](NC(=O)[C@@H]1CCCN1C(=O)[C@@H]1CSSC[C@H](NC(=O)CNC(=O)CNC(=O)CN)C(=O)N[C@@H](Cc2ccc(O)cc2)C(=O)N[C@@H](Cc2ccccc2)C(=O)N[C@@H](CCC(N)=O)C(=O)N[C@@H](CC(N)=O)C(=O)N1)C(=O)NCC(N)=O [terlipressin, reference compound] (H-GGGCYFQNCPKG-NH2; disulfide 4-9)
EC50 (hV1a receptor): 82.1 nM | selectivity hOT/hV1a [1, 4]: + (selective hV1a receptor agonist; EC50 hOT/hV1a ratio not determined due to very low agonist efficacy (<30% compared to AVP) at the hOT receptor) | in vivo duration relative to AVP [2]: 9.1

CC[C@H](C)[C@@H]1NC(=O)[C@H](Cc2ccccc2)NC(=O)[C@@H](N)CSSC[C@@H](C(=O)N2CCC[C@H]2C(=O)N[C@@H](CCCN)C(=O)NCC(N)=O)NC(=O)[C@H](CC(N)=O)NC(=O)[C@H](CC(N)=O)NC1=O [Compound 30] (H-CFINNCP[Orn]G-NH2; disulfide 1-6; N-terminus and C-terminus assumed)
EC50 (hV1a receptor; [3]): 1.45 nM | selectivity hOT/hV1a [1, 4]: + (selective hV1a receptor agonist; EC50 hOT/hV1a ratio not determined due to very low agonist efficacy (<30% compared to AVP) at the hOT receptor) | in vivo duration relative to AVP [2]: 1.7

CC[C@H](C)[C@@H]1NC(=O)[C@H](Cc2ccco2)NC(=O)[C@@H](N)CSSC[C@@H](C(=O)N2CCC[C@H]2C(=O)N[C@@H](CCCN)C(=O)NCC(N)=O)NC(=O)[C@H](CC(N)=O)NC(=O)[C@H](CCC(N)=O)NC1=O [Compound 25] (H-C[Ala(2-furyl)]IQNCP[Orn]G-NH2; disulfide 1-6)
EC50 (hV1a receptor): 1.4 nM | selectivity hOT/hV1a [1]: 23 | in vivo duration relative to AVP [2]: 2.0

CC[C@H](C)[C@@H]1NC(=O)[C@H](Cc2ccccc2)NC(=O)[C@@H](N)CSSC[C@@H](C(=O)N2CCC[C@H]2C(=O)N[C@@H](CCCN)C(=O)NCC(N)=O)NC(=O)[C@H](CC(N)=O)NC(=O)[C@H](CCC(=O)NOC)NC1=O [Compound 10] (H-CFI[X2]NCP[Orn]G-NH2; disulfide 1-6; N-terminus and C-terminus assumed)
EC50 (hV1a receptor; [3]): 1.15 nM | selectivity hOT/hV1a ([1]; EC50 ratio): 11 | in vivo duration relative to AVP [2]: 2.3

CCNCCC[C@H](NC(=O)[C@@H]1CCCN1C(=O)[C@@H]1CSSC[C@H](N)C(=O)N[C@@H](Cc2ccccc2)C(=O)N[C@@H]([C@@H](C)CC)C(=O)N[C@@H](CC(N)=O)C(=O)N[C@@H](CC(N)=O)C(=O)N1)C(=O)NCC(N)=O [Compound 47] (H-CFINNCP[X1]G-NH2; disulfide 1-6; N-terminus and C-terminus assumed)
EC50 (hV1a receptor; [3]): 0.99 nM | selectivity hOT/hV1a [1, 4]: + (selective hV1a receptor agonist; EC50 hOT/hV1a ratio not determined due to very low agonist efficacy (<30% compared to AVP) at the hOT receptor) | in vivo duration relative to AVP [2]: 1.6

CC[C@H](C)[C@@H]1NC(=O)[C@H](Cc2ccccc2)NC(=O)[C@@H](N)CSSC[C@@H](C(=O)N2CCC[C@H]2C(=O)N[C@@H](CCCN)C(=O)NCC(N)=O)NC(=O)[C@H](CC(N)=O)NC(=O)[C@H](CCCC(N)=O)NC1=O [Compound 9] (H-CFI[Aad](NH2)NCP[Orn]G-NH2; disulfide 1-6)
EC50 (hV1a receptor): 0.68 nM | selectivity hOT/hV1a [1]: + (key: +: selective hV1a receptor agonist; EC50 hOT/hV1a ratio not determined due to very low agonist efficacy (<30% compared to AVP) at the hOT receptor) | in vivo duration relative to AVP [2]: 1.5

CC[C@H](C)[C@@H]1NC(=O)[C@H](Cc2ccccc2)NC(=O)[C@@H](N)CSSC[C@@H](C(=O)N2CCC[C@H]2C(=O)N[C@@H](CCCNC)C(=O)NCC(N)=O)NC(=O)[C@H](CC(N)=O)NC(=O)[C@H](CC(N)=O)NC1=O [Compound 46] (H-CFINNCP[Orn(Me)]G-NH2; disulfide 1-6; N-terminus and C-terminus assumed)
EC50 (hV1a receptor; [3]): 2.41 nM | selectivity hOT/hV1a [1, 4]: + (selective hV1a receptor agonist; EC50 hOT/hV1a ratio not determined due to very low agonist efficacy (<30% compared to AVP) at the hOT receptor) | in vivo duration relative to AVP [2]: 2.1

CCCNCCC[C@H](NC(=O)[C@@H]1CCCN1C(=O)[C@@H]1CSSC[C@H](N)C(=O)N[C@@H](Cc2ccccc2)C(=O)N[C@@H]([C@@H](C)CC)C(=O)N[C@@H](CC(N)=O)C(=O)N[C@@H](CC(N)=O)C(=O)N1)C(=O)NCC(N)=O [Compound 50] (H-CFINNCP[Orn(Pr)]G-NH2; disulfide 1-6; N-terminus and C-terminus assumed)
EC50 (hV1a receptor; [3]): 1.52 nM | selectivity hOT/hV1a ([1]; EC50 ratio): 43 | in vivo duration relative to AVP [2]: 2.4

CCNCCC[C@H](NC(=O)[C@@H]1CCCN1C(=O)[C@@H]1CSSC[C@H](N)C(=O)N[C@@H](Cc2ccccc2)C(=O)N[C@@H]([C@@H](C)CC)C(=O)N[C@@H](CCC(N)=O)C(=O)N[C@@H](CC(N)=O)C(=O)N1)C(=O)NCC(N)=O [Compound 6] (H-CFIQNCP[X1]G-NH2; disulfide 1-6; N-terminus and C-terminus assumed)
EC50 (hV1a receptor): 0.29 nM | selectivity hOT/hV1a ([1]; EC50 ratio): 86 | in vivo duration relative to AVP [2]: 1.9

CC[C@H](C)[C@@H]1NC(=O)[C@H](Cc2ccsc2)NC(=O)[C@@H](N)CSSC[C@@H](C(=O)N2CCC[C@H]2C(=O)N[C@@H](CCN)C(=O)NCC(N)=O)NC(=O)[C@H](CC(N)=O)NC(=O)[C@H](CCC(N)=O)NC1=O [Compound 15] (H-C[3Thi]IQNCP[Dab]G-NH2; disulfide 1-6)
EC50 (hV1a receptor; [3]): 0.61 nM | selectivity hOT/hV1a ([1]; EC50 ratio): 43 | in vivo duration relative to AVP [2]: 2.2

CC[C@H](C)[C@@H]1NC(=O)[C@H](Cc2ccccc2)NC(=O)[C@@H](N)CSSC[C@@H](C(=O)N2CCC[C@H]2C(=O)N[C@@H](CCCNC)C(=O)NCC(N)=O)NC(=O)[C@H](CC(N)=O)NC(=O)[C@H](CCC(N)=O)NC1=O [Compound 39] (H-CFIQNCP[Orn(Me)]G-NH2; disulfide 1-6; N-terminus and C-terminus assumed)
EC50 (hV1a receptor): 0.21 nM | selectivity hOT/hV1a ([1]; EC50 ratio): 178 | in vivo duration relative to AVP [2]: 1.9

CC[C@H](C)[C@@H]1NC(=O)[C@H](Cc2ccccc2)NC(=O)[C@@H](N)CSSC[C@@H](C(=O)N2CCC[C@H]2C(=O)N[C@@H](CCCNC(C)C)C(=O)NCC(N)=O)NC(=O)[C@H](CC(N)=O)NC(=O)[C@H](CC(N)=O)NC1=O [Compound 41] (H-CFINNCP[Orn(iPr)]G-NH2; disulfide 1-6)
EC50 (hV1a receptor): 0.98 nM | selectivity hOT/hV1a [1]: 53 | in vivo duration relative to AVP [2]: 2.6

CC[C@H](C)[C@@H]1NC(=O)[C@H](Cc2ccccc2)NC(=O)[C@@H](N)CSSC[C@@H](C(=O)N2CCC[C@H]2C(=O)N[C@@H](CCN)C(=O)NCC(N)=O)NC(=O)[C@H](CC(N)=O)NC(=O)[C@H](CCCC(N)=O)NC1=O [Compound 11] (H-CFI[Aad](NH2)NCP[Dab]G-NH2; disulfide 1-6)
EC50 (hV1a receptor): 2.96 nM | selectivity hOT/hV1a [1]: + (key: +: selective hV1a receptor agonist; EC50 hOT/hV1a ratio not determined due to very low agonist efficacy (<30% compared to AVP) at the hOT receptor) | in vivo duration relative to AVP [2]: 1.9
